Data set [1] has as its system HCV replicon RNA (GenBank Accession No. AJ242654). The data set is described as follows: HCV Replicon Assay (replicon RNA reduction and/or Fluc reporter signal). It counts as cell-based, Hepatitis C virus. Particulars: Hepatitis C virus, 72 h, replicon-containing cells cultured with test compound for up to 3 days. The procedure, abridged:
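IC50 values mostly reflect the drop in replicon RNA, though Fluc reporter signal may also be used. Compound incubated with cells carrying the bicistronic replicon for as long as 3 days; interferon served as positive control.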

This is an account of results in patent publication US9593108B2, “Compounds and methods for antiviral treatment” (PTC Therapeutics, Inc., priority 2009, dated 2017).

On to `C[C@@H](NS(=O)(=O)c1ccc(-c2c(C#N)c3cc(F)cnc3n2C2CCC2)nc1)C(F)(F)F` [Cpd 47, 6-(3-cyano-1-cyclobutyl-5-fluoro-1H-pyrrolo[2,3-b]pyridin-2-yl)-N-[(2R)-1,1,1-trifluoropropan-2-yl]pyridine-3-sulfonamide], for which the melting point fell in the range of 167 to 169 °C. In data set [1], the half-maximal inhibitory concentration (IC50) was less than 500 nM.

As to `COc1cnc2c(c1)c(C#N)c(-c1ncc(S(=O)(=O)NC(C)C)cn1)n2C1CCC1` [Cpd 49, 2-(3-cyano-1-cyclobutyl-5-methoxy-1H-pyrrolo[2,3-b]pyridin-2-yl)-N-(propan-2-yl)pyrimidine-5-sulfonamide], the melting point was 215 to 217 °C. The compound further registered an IC50 in data set [1] of less than 500 nM.

Regarding `C[C@@H](NS(=O)(=O)c1ccc(-c2c(C#N)c3cc(Cl)cnc3n2C2CCC2)nc1)C(F)(F)F` [Cpd 50, 6-(5-chloro-3-cyano-1-cyclobutyl-1H-pyrrolo[2,3-b]pyridin-2-yl)-N-[(2R)-1,1,1-trifluoropropan-2-yl]pyridine-3-sulfonamide], the melting point lay within 202 to 203 °C. In data set [1], the IC50 was less than 500 nM.

The compound `C[C@H](NS(=O)(=O)c1ccc(-c2c(C#N)c3cc(Cl)cnc3n2C2CCC2)nc1)C(F)(F)F` [Cpd 51, 6-(5-chloro-3-cyano-1-cyclobutyl-1H-pyrrolo[2,3-b]pyridin-2-yl)-N-[(2S)-1,1,1-trifluoropropan-2-yl]pyridine-3-sulfonamide] came in with a melting point of 203 to 204 °C. Also, in data set [1], the IC50 was less than 500 nM.

As for `CC(C)(C)NS(=O)(=O)c1ccc(-c2c(C#N)c3cc(Cl)cnc3n2C2CCC2)nc1` [Cpd 52, N-tert-butyl-6-(5-chloro-3-cyano-1-cyclobutyl-1H-pyrrolo[2,3-b]pyridin-2-yl)pyridine-3-sulfonamide], the melting point was 207 to 208 °C. In addition, the 50% inhibitory concentration (IC50) in data set [1] was less than 500 nM.

In turn, `Cc1ncc2c(C#N)c(-c3ccc(S(=O)(=O)NC(C)(C)C(F)(F)F)cc3)n(C3CCC3)c2n1` [Cpd 53, 4-(5-cyano-7-cyclobutyl-2-methyl-7H-pyrrolo[2,3-d]pyrimidin-6-yl)-N-(1,1,1-trifluoro-2-methylpropan-2-yl)benzenesulfonamide] came in with a melting point of 211 to 214 °C. Moreover, the IC50 in data set [1] is less than 500 nM.

On to `C[C@H](NS(=O)(=O)c1ccc(-c2c(C#N)c3ccc(OC(F)F)nc3n2C2CCC2)nc1)C(F)(F)F` [Cpd 54, 6-[3-cyano-1-cyclobutyl-6-(difluoromethoxy)-1H-pyrrolo[2,3-b]pyridin-2-yl]-N-[(2S)-1,1,1-trifluoropropan-2-yl]pyridine-3-sulfonamide], for which the melting point lay within 176 to 177 °C. In data set [1], this compound showed an IC50 of less than 500 nM.

The compound `N#Cc1c(-c2ncc(S(=O)(=O)NC(CF)CF)cn2)n(C2CCC2)c2nc(OC(F)F)ccc12` [Cpd 55, 2-[3-cyano-1-cyclobutyl-6-(difluoromethoxy)-1H-pyrrolo[2,3-b]pyridin-2-yl]-N-(1,3-difluoropropan-2-yl)pyrimidine-5-sulfonamide] came in with a melting point of 234 to 236 °C. Moreover, the IC50 in data set [1] is less than 500 nM.

`CC(C)(NS(=O)(=O)c1ccc(-c2c(C#N)c3cc(Cl)cnc3n2C2CCC2)nc1)C(F)(F)F` [Cpd 56, 6-(5-chloro-3-cyano-1-cyclobutyl-1H-pyrrolo[2,3-b]pyridin-2-yl)-N-(1,1,1-trifluoro-2-methylpropan-2-yl)pyridine-3-sulfonamide] displayed a melting point of 221 to 222 °C. The compound further yielded an IC50 in data set [1] of less than 500 nM.

The compound `N#Cc1c(-c2ccc(S(=O)(=O)NC3(C(F)(F)F)CC3)cn2)n(C2CCC2)c2ncc(Cl)cc12` [Cpd 57, 6-(5-chloro-3-cyano-1-cyclobutyl-1H-pyrrolo[2,3-b]pyridin-2-yl)-N-[1-(trifluoromethyl)cyclopropyl]pyridine-3-sulfonamide] came in with a melting point of 254 to 255 °C. For the same compound, the concentration for half-maximal inhibition (IC50) in data set [1] was less than 500 nM.

Consider `CC(C)NS(=O)(=O)c1cnc(-c2c(C#N)c3cc(Cl)cnc3n2C2CCC2)nc1` [Cpd 58, 2-(5-chloro-3-cyano-1-cyclobutyl-1H-pyrrolo[2,3-b]pyridin-2-yl)-N-(propan-2-yl)pyrimidine-5-sulfonamide], for which the melting point was 224 to 225 °C. Besides, in data set [1], the IC50 is less than 500 nM.

The compound `C[C@@H](NS(=O)(=O)c1ccc(-c2c(C#N)c3cc(Cl)cnc3n2CC2CC2)nc1)C(F)(F)F` [Cpd 59, 6-[5-chloro-3-cyano-1-(cyclopropylmethyl)-1H-pyrrolo[2,3-b]pyridin-2-yl]-N-[(2R)-1,1,1-trifluoropropan-2-yl]pyridine-3-sulfonamide] came in with a melting point of 224 to 226 °C. The same compound showed an IC50 in data set [1] of 500 to 2000 nM.

The compound `C[C@@H](NS(=O)(=O)c1ccc(-c2c(C#N)c3cc(F)cnc3n2CC2CC2)nc1)C(F)(F)F` [Cpd 60, 6-[3-cyano-1-(cyclopropylmethyl)-5-fluoro-1H-pyrrolo[2,3-b]pyridin-2-yl]-N-[(2R)-1,1,1-trifluoropropan-2-yl]pyridine-3-sulfonamide] yielded a melting point of 185 to 187 °C. Besides, in data set [1], the half-inhibitory concentration (IC50) is less than 500 nM.

Regarding `C[C@H](NS(=O)(=O)c1ccc(-c2c(C#N)c3cc(Cl)cnc3n2C2CCC2)cc1)C(F)(F)F` [Cpd 61, 4-(5-chloro-3-cyano-1-cyclobutyl-1H-pyrrolo[2,3-b]pyridin-2-yl)-N-[(2S)-1,1,1-trifluoropropan-2-yl]benzenesulfonamide], the melting point was in the range of 220 to 222 °C. The compound also yielded a half-inhibitory concentration (IC50) in data set [1] of less than 500 nM.

On to `C[C@H](NS(=O)(=O)c1ccc(-c2c(C#N)c3cnc(OC(F)F)nc3n2C2CCC2)nc1)C(F)(F)F` [Cpd 62, 6-[5-cyano-7-cyclobutyl-2-(difluoromethoxy)-7H-pyrrolo[2,3-d]pyrimidin-6-yl]-N-[(2S)-1,1,1-trifluoropropan-2-yl]pyridine-3-sulfonamide], for which the melting point lay in the range of 172 to 174 °C. In addition, the IC50 in data set [1] is less than 500 nM.

As for `C[C@H](NS(=O)(=O)c1ccc(-c2c(C#N)c3cc(Cl)cnc3n2CC2CC2)nc1)C(F)(F)F` [Cpd 63, 6-[5-chloro-3-cyano-1-(cyclopropylmethyl)-1H-pyrrolo[2,3-b]pyridin-2-yl]-N-[(2S)-1,1,1-trifluoropropan-2-yl]pyridine-3-sulfonamide], the melting point fell in the range of 226 to 227 °C. This compound also returned an IC50 in data set [1] of less than 500 nM.

Take `C[C@H](NS(=O)(=O)c1ccc(-c2c(C#N)c3cc(F)cnc3n2CC2CC2)nc1)C(F)(F)F` [Cpd 64, 6-[3-cyano-1-(cyclopropylmethyl)-5-fluoro-1H-pyrrolo[2,3-b]pyridin-2-yl]-N-[(2S)-1,1,1-trifluoropropan-2-yl]pyridine-3-sulfonamide]: the melting point fell in the range of 186 to 188 °C. The same compound gave an IC50 in data set [1] of less than 500 nM.

On to `COc1cnc2c(c1)c(C#N)c(-c1ccc(S(=O)(=O)NC(CF)CF)cc1)n2C1CCC1` [Cpd 65, 4-(3-cyano-1-cyclobutyl-5-methoxy-1H-pyrrolo[2,3-b]pyridin-2-yl)-N-(1,3-difluoropropan-2-yl)benzenesulfonamide], for which the melting point lay in the range of 215 to 218 °C. Besides, the IC50 in data set [1] is less than 500 nM.

Compound `COc1cnc2c(c1)c(C#N)c(-c1ccc(S(=O)(=O)N[C@@H](C)C(F)(F)F)cn1)n2CC1CC1` [Cpd 66, 6-[3-cyano-1-(cyclopropylmethyl)-5-methoxy-1H-pyrrolo[2,3-b]pyridin-2-yl]-N-[(2S)-1,1,1-trifluoropropan-2-yl]pyridine-3-sulfonamide] displayed a melting point of 136 to 140 °C. Also, in data set [1], the IC50 is less than 500 nM.

In turn, `C[C@H](NS(=O)(=O)c1ccc(-c2c(C#N)c3cc(Cl)ncc3n2C2CCC2)nc1)C(F)(F)F` [Cpd 67, 6-(5-chloro-3-cyano-1-cyclobutyl-1H-pyrrolo[2,3-c]pyridin-2-yl)-N-[(2S)-1,1,1-trifluoropropan-2-yl]pyridine-3-sulfonamide] yielded a melting point of 180 to 183 °C. This compound gave an IC50 in data set [1] of less than 500 nM.

Turning to `Cc1cnc2c(c1)c(C#N)c(-c1ccc(S(=O)(=O)N[C@H](C)C(F)(F)F)cn1)n2C1CCC1` [Cpd 68, 6-(3-cyano-1-cyclobutyl-5-methyl-1H-pyrrolo[2,3-b]pyridin-2-yl)-N-[(2R)-1,1,1-trifluoropropan-2-yl]pyridine-3-sulfonamide], the melting point fell in the range of 176 to 178 °C. This compound showed an IC50 in data set [1] of less than 500 nM.

`Cc1cnc2c(c1)c(C#N)c(-c1ccc(S(=O)(=O)N[C@@H](C)C(F)(F)F)cn1)n2C1CCC1` [Cpd 69, 6-(3-cyano-1-cyclobutyl-5-methyl-1H-pyrrolo[2,3-b]pyridin-2-yl)-N-[(2S)-1,1,1-trifluoropropan-2-yl]pyridine-3-sulfonamide] showed a melting point of 177 to 179 °C. The IC50 in data set [1] was less than 500 nM.

Regarding `Cc1cnc2c(c1)c(C#N)c(-c1ncc(S(=O)(=O)N[C@H](C)C(F)(F)F)cn1)n2C1CCC1` [Cpd 70, 2-(3-cyano-1-cyclobutyl-5-methyl-1H-pyrrolo[2,3-b]pyridin-2-yl)-N-[(2R)-1,1,1-trifluoropropan-2-yl]pyrimidine-5-sulfonamide], the melting point lay within 186 to 188 °C. Further, the IC50 in data set [1] is less than 500 nM.

Compound `Cc1cnc2c(c1)c(C#N)c(-c1ncc(S(=O)(=O)N[C@@H](C)C(F)(F)F)cn1)n2C1CCC1` [Cpd 71, 2-(3-cyano-1-cyclobutyl-5-methyl-1H-pyrrolo[2,3-b]pyridin-2-yl)-N-[(2S)-1,1,1-trifluoropropan-2-yl]pyrimidine-5-sulfonamide] had a melting point of 186 to 188 °C. Moreover, the IC50 in data set [1] was less than 500 nM.

`Cc1cnc2c(c1)c(C#N)c(-c1ccc(S(=O)(=O)N[C@H](C)C(F)(F)F)cc1)n2C1CCC1` [Cpd 72, 4-(3-cyano-1-cyclobutyl-5-methyl-1H-pyrrolo[2,3-b]pyridin-2-yl)-N-[(2R)-1,1,1-trifluoropropan-2-yl]benzenesulfonamide] showed a melting point of 197 to 198 °C. For the same compound, the IC50 in data set [1] was less than 500 nM.

As for `Cc1cnc2c(c1)c(C#N)c(-c1ccc(S(=O)(=O)N[C@@H](C)C(F)(F)F)cc1)n2C1CCC1` [Cpd 73, 4-(3-cyano-1-cyclobutyl-5-methyl-1H-pyrrolo[2,3-b]pyridin-2-yl)-N-[(2S)-1,1,1-trifluoropropan-2-yl]benzenesulfonamide], the melting point lay in the range of 197 to 198 °C. Moreover, the IC50 in data set [1] is less than 500 nM.
